In PubChem BioAssay AID2060502 (Molecular Pharmacology Branch, DTP, NCI, 2025):

Test system: 885724-159-R-J1-PDC complex spheroid viability
Test: Anticancer human tumor 885724-159-R-J1-PDC patient-derived pancreatic adenocarcinoma cell line growth inhibition [GQUAD]
Conditions: for IC50: curve of first compound; for viability, T/C: stronger effect = lower value
How it was run: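 Tumor cells were grown as complex spheroids with HUVEC endothelial cells and mesenchymal stem cells as stroma. G-quadruplex stabilizers were combined with targeted agents over half-log dilutions from near the clinical Cmax, or from 10 microM.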

[1] = second compound 0.0316 µM, first compound 0.0316 µM
[2] = second compound 0.0316 µM, first compound 0.1 µM
[3] = second compound 0.0316 µM, first compound 0.316 µM
[4] = second compound 0.0316 µM, first compound 1 µM
[5] = second compound 0.0316 µM, first compound 3.16 µM
[6] = second compound 0.0316 µM, first compound 10 µM
[7] = second compound 0.1 µM, first compound 0.0316 µM
[8] = second compound 0.1 µM, first compound 0.1 µM
[9] = second compound 0.1 µM, first compound 0.316 µM
[10] = second compound 0.1 µM, first compound 1 µM
[11] = second compound 0.1 µM, first compound 3.16 µM
[12] = second compound 0.1 µM, first compound 10 µM
[13] = second compound 0.316 µM, first compound 0.0316 µM
[14] = second compound 0.316 µM, first compound 0.1 µM
[15] = second compound 0.316 µM, first compound 0.316 µM
[16] = second compound 0.316 µM, first compound 1 µM
[17] = second compound 0.316 µM, first compound 3.16 µM
[18] = second compound 0.316 µM, first compound 10 µM
[19] = second compound 1 µM, first compound 0.0316 µM
[20] = second compound 1 µM, first compound 0.1 µM
[21] = second compound 1 µM, first compound 0.316 µM
[22] = second compound 1 µM, first compound 1 µM
[23] = second compound 1 µM, first compound 3.16 µM
[24] = second compound 1 µM, first compound 10 µM
[25] = second compound 3.16 µM, first compound 0.0316 µM
[26] = second compound 3.16 µM, first compound 0.1 µM
[27] = second compound 3.16 µM, first compound 0.316 µM
[28] = second compound 3.16 µM, first compound 1 µM
[29] = second compound 3.16 µM, first compound 3.16 µM
[30] = second compound 3.16 µM, first compound 10 µM
[31] = second compound 10 µM, first compound 0.0316 µM
[32] = second compound 10 µM, first compound 0.1 µM
[33] = second compound 10 µM, first compound 0.316 µM
[34] = second compound 10 µM, first compound 1 µM
[35] = second compound 10 µM, first compound 3.16 µM
[36] = second compound 10 µM, first compound 10 µM
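Note: spheroids exposed to agents for seven days before readout.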
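Throughout, for viability, T/C: percent of vehicle control viability where 100% = DMSO wells.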

## C=CC(=O)N1CCN(c2nc(=O)n(-c3c(C)ccnc3C(C)C)c3nc(-c4c(O)cccc4F)c(F)cc23)C(C)C1 (stereo unspecified) + Cc1[nH]c2ccc(F)cc2c1-c1nc2c3cccnc3c3ncccc3c2[nH]1
Second compound 0.0316 µM
  IC50: > 10000 nM
Second compound 0.1 µM
  IC50: > 10000 nM
Second compound 0.316 µM
  IC50: > 10000 nM
Second compound 1 µM
  IC50: > 10000 nM
Second compound 3.16 µM
  IC50: < 31.6 nM
Second compound 10 µM
  IC50: > 10000 nM
[1]
  viability, T/C: 97.3%
[2]
  viability, T/C: 106%
[3]
  viability, T/C: 98.4%
[4]
  viability, T/C: 104%
[5]
  viability, T/C: 98%
[6]
  viability, T/C: 97.2%
[7]
  viability, T/C: 105%
[8]
  viability, T/C: 97.6%
[9]
  viability, T/C: 98.7%
[10]
  viability, T/C: 106%
[11]
  viability, T/C: 109%
[12]
  viability, T/C: 99.2%
[13]
  viability, T/C: 95.5%
[14]
  viability, T/C: 105%
[15]
  viability, T/C: 92.8%
[16]
  viability, T/C: 94.3%
[17]
  viability, T/C: 122%
[18]
  viability, T/C: 88.6%
[19]
  viability, T/C: 73.7%
[20]
  viability, T/C: 71.9%
[21]
  viability, T/C: 69.7%
[22]
  viability, T/C: 73.6%
[23]
  viability, T/C: 78.7%
[24]
  viability, T/C: 73.7%
[25]
  viability, T/C: 45.9%
[26]
  viability, T/C: 29.1%
[27]
  viability, T/C: 33.4%
[28]
  viability, T/C: 38.5%
[29]
  viability, T/C: 33.4%
[30]
  viability, T/C: 27.8%
[31]
  viability, T/C: 64.3%
[32]
  viability, T/C: 70.3%
[33]
  viability, T/C: 72.1%
[34]
  viability, T/C: 79.2%
[35]
  viability, T/C: 73%
[36]
  viability, T/C: 65.9%

## CC(C)n1c(=O)n(C)c2cnc3cc(F)c(-c4ccc(OCCCN5CCCCC5)nc4)cc3c21 + Cc1[nH]c2ccc(F)cc2c1-c1nc2c3cccnc3c3ncccc3c2[nH]1
Second compound 0.0316 µM
  IC50: > 10000 nM
Second compound 0.1 µM
  IC50: > 10000 nM
Second compound 0.316 µM
  IC50: > 10000 nM
Second compound 1 µM
  IC50: > 10000 nM
Second compound 3.16 µM
  IC50: 133 nM
Second compound 10 µM
  IC50: > 10000 nM
[1]
  viability, T/C: 107%
[2]
  viability, T/C: 95.2%
[3]
  viability, T/C: 98.2%
[4]
  viability, T/C: 92.9%
[5]
  viability, T/C: 84.6%
[6]
  viability, T/C: 83.2%
[7]
  viability, T/C: 100%
[8]
  viability, T/C: 99.2%
[9]
  viability, T/C: 100%
[10]
  viability, T/C: 91.3%
[11]
  viability, T/C: 94.5%
[12]
  viability, T/C: 78.9%
[13]
  viability, T/C: 93.4%
[14]
  viability, T/C: 102%
[15]
  viability, T/C: 92.5%
[16]
  viability, T/C: 79.8%
[17]
  viability, T/C: 81.6%
[18]
  viability, T/C: 74.2%
[19]
  viability, T/C: 74.3%
[20]
  viability, T/C: 69.2%
[21]
  viability, T/C: 75%
[22]
  viability, T/C: 70%
[23]
  viability, T/C: 68.3%
[24]
  viability, T/C: 59.5%
[25]
  viability, T/C: 54.7%
[26]
  viability, T/C: 43.4%
[27]
  viability, T/C: 53.8%
[28]
  viability, T/C: 42.9%
[29]
  viability, T/C: 38.5%
[30]
  viability, T/C: 25.3%
[31]
  viability, T/C: 69.9%
[32]
  viability, T/C: 71.6%
[33]
  viability, T/C: 79.8%
[34]
  viability, T/C: 76.1%
[35]
  viability, T/C: 72.4%
[36]
  viability, T/C: 63.2%

## CC1COCCN1c1cc(C2(O)CC3CCC(C2)O3)c2cnn(-c3ccn[nH]3)c2n1 (stereo unspecified) + Cc1[nH]c2ccc(F)cc2c1-c1nc2c3cccnc3c3ncccc3c2[nH]1
Second compound 0.0316 µM
  IC50: 1890 nM
Second compound 0.1 µM
  IC50: 1200 nM
Second compound 0.316 µM
  IC50: 865 nM
Second compound 1 µM
  IC50: 432 nM
Second compound 3.16 µM
  IC50: < 31.6 nM
Second compound 10 µM
  IC50: 512 nM
[1]
  viability, T/C: 97.7%
[2]
  viability, T/C: 77.5%
[3]
  viability, T/C: 68.3%
[4]
  viability, T/C: 55.2%
[5]
  viability, T/C: 46%
[6]
  viability, T/C: 37.8%
[7]
  viability, T/C: 96.6%
[8]
  viability, T/C: 88%
[9]
  viability, T/C: 74.1%
[10]
  viability, T/C: 50.1%
[11]
  viability, T/C: 42.7%
[12]
  viability, T/C: 37.7%
[13]
  viability, T/C: 91%
[14]
  viability, T/C: 79%
[15]
  viability, T/C: 62.4%
[16]
  viability, T/C: 47.3%
[17]
  viability, T/C: 41.6%
[18]
  viability, T/C: 35.5%
[19]
  viability, T/C: 79.5%
[20]
  viability, T/C: 66%
[21]
  viability, T/C: 54.2%
[22]
  viability, T/C: 38.1%
[23]
  viability, T/C: 37.4%
[24]
  viability, T/C: 25.4%
[25]
  viability, T/C: 41.2%
[26]
  viability, T/C: 29.9%
[27]
  viability, T/C: 41.1%
[28]
  viability, T/C: 22.6%
[29]
  viability, T/C: 20.1%
[30]
  viability, T/C: 8.51%
[31]
  viability, T/C: 69.6%
[32]
  viability, T/C: 69%
[33]
  viability, T/C: 51%
[34]
  viability, T/C: 44.4%
[35]
  viability, T/C: 33.1%
[36]
  viability, T/C: 24.1%
